Measured values taken from ChEMBL document CHEMBL2321822, “Synthesis and biological evaluation of 1-(6-methylpyridin-2-yl)-5-(quinoxalin-6-yl)-1,2,3-triazoles as transforming growth factor-β type 1 receptor kinase inhibitors” (Bioorg Med Chem Lett, 2013).

Tests used:
[1] = target: Mitogen-activated protein kinase 14 (Homo sapiens) (UniProt Q16539); assay: Inhibition of human P38alpha/MAPK at 10 uM in presence of 1 microM ATP
[2] = target: T1, TGF-beta receptor type-1 (Homo sapiens) (UniProt P36897); assay: Inhibition of human ALK5 at 10 uM in presence of 1 microM ATP relative to control
T1 sequence (whole entry): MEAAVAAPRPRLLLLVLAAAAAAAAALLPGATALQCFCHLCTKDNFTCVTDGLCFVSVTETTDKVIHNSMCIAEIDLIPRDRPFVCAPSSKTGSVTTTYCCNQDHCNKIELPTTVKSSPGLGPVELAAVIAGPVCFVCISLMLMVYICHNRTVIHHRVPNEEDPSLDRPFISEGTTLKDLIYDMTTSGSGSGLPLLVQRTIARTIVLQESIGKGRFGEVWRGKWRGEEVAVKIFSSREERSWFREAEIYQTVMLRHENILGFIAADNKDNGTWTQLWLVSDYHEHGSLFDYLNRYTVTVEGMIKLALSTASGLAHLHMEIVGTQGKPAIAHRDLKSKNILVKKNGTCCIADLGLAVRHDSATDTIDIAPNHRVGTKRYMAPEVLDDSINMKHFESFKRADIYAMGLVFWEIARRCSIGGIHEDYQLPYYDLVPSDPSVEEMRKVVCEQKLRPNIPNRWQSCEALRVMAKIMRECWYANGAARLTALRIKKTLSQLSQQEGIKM

TGF-beta receptor type-1 = target: T2, TGF-beta receptor type-1 (Homo sapiens, UniProt P36897); assay: Inhibition of human ALK5 in presence of 1 microM ATP
T2 sequence (P36897 whole entry): T1 sequence (whole entry)

Mitogen-activated protein kinase 14 (Homo sapiens), sequence (Q16539 whole entry): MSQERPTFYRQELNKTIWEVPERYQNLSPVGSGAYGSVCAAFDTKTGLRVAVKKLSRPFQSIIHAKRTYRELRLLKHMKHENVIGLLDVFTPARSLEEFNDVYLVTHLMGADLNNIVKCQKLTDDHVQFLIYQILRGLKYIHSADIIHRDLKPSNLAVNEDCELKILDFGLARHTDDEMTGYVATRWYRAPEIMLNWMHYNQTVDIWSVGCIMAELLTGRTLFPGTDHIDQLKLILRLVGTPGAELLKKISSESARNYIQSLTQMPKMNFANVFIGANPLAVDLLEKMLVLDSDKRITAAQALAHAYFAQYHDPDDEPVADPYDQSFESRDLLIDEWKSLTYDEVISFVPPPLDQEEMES

| SMILES | inhibition [1] [%] | inhibition [2] [%] | IC50 (TGF-beta receptor type-1) [µM] |
| --- | --- | --- | --- |
| Cc1ccc(-c2nnn(-c3cccc(C)n3)c2-c2ccc3nccnc3c2)cc1 | -5.07 | 20.7 | – |
| Cc1cccc(-n2nnc(CCC(C)C)c2-c2ccc3nccnc3c2)n1 | -5.91 | 73.1 | 8.6 |
| Cc1cccc(-n2nnc(-c3cc(F)cc(F)c3)c2-c2ccc3nccnc3c2)n1 | 40.4 | 17.4 | – |
| Cc1cccc(-n2nnc(Cc3ccccc3)c2-c2ccc3nccnc3c2)n1 | -1.94 | 80.8 | 4.69 |
| CCCCc1nnn(-c2cccc(C)n2)c1-c1ccc2nccnc2c1 | -2.52 | 70 | 7.38 |
| COc1ccccc1-c1nnn(-c2cccc(C)n2)c1-c1ccc2nccnc2c1 | 18.4 | 34.9 | 34.5 |
| Cc1cccc(-n2nnc(-c3ccc(F)cc3)c2-c2ccc3nccnc3c2)n1 | 30.9 | 8.19 | – |
| Cc1cccc(-n2nnc(CCCCO)c2-c2ccc3nccnc3c2)n1 | – | 20.4 | 50.8 |
| COc1cc(OC)cc(-c2nnn(-c3cccc(C)n3)c2-c2ccc3nccnc3c2)c1 | -6.87 | 23.4 | – |
| Cc1cccc(-n2nnc(-c3ccccc3)c2-c2ccc3nccnc3c2)n1 | 31.2 | -4.94 | – |
| COc1ccc(-c2nnn(-c3cccc(C)n3)c2-c2ccc3nccnc3c2)cc1 | – | 0.26 | – |
